Assay results taken from patent publication US7323609B2, “Corrosion and gas hydrate inhibitors having improved water solubility and increased biodegradability” (Clariant Produkte (Deutschland) GmbH, priority 2003, dated 2008).

Legend:
[1] = LPR test (corrosion inhibition, conditions similar to ASTM D 2776); set-up: concentration or dose not given beside the values
Experimental: The products were also tested in the LPR test (test conditions similar to ASTM D 2776).

[2] = Shell wheel test (corrosion inhibition); details: 50 ppm of a 40% inhibitor solution; salt water/petroleum, pH 3.5, 40 rpm, 70° C., 24 hours; from mass reduction vs blank
Experimental: The compounds according to the invention were tested as corrosion inhibitors in the Shell wheel test. Coupons of carbon steel (DIN 1.1203 having 15 cm^2 surface area) were immersed in a salt water/petroleum mixture (9:1.5% NaCl solution, adjusted to pH 3.5 using acetic acid) and subjected to this medium at a rotation rate of 40 rpm at 70° C. for 24 hours. The dosage of the inhibitor was 50 ppm of a 40% solution of the inhibitor. The protection values were calculated from the mass reduction of the coupons, based on a blank value.
In the table which follows, “comparison 1” refers to a commercial residue amine, quat based on dicocoalkyldimethylammonium chloride and “comparison 2” to a commercial soya fatty acid amidopropyl-N,N-dimethylammonium carboxymethyl betaine described by EP-B-0 446 616 (prior art corrosion inhibitors).

Substance	Protection after 10 min [1] [%]	Protection after 30 min [1] [%]	Protection after 60 min [1] [%]	ø Protection % [2] [%]
lauryl+3 EO-ether carboxamido-N,N-dimethylamino-N-propylammonium N-methylcarboxyl betaine [Example 35]	74.4	80.2	84.3	75.9
oleyl+5 EO-ether carboxamido-N,N-dimethylamino-N-propylammonium N-methylcarboxyl betaine [Example 33]	75.6	80.3	82.8	70.7
C14/15-oxo alcohol+7 EO-ether carboxamido-N,N-dimethylamino-N-propylammonium N-methylcarboxyl betaine [Example 34]	–	–	–	71.9
